Experimental data: the supplement of paper PMC12420376

Experiments:
KURAMOCHI = test: drug sensitivity score (DSS2) on cancer cell count; higher = more sensitive; extreme values may be limits of the assay; conditions: 72 h
Summary of the method: (§1)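 Ovarian cancer cells were grown alone or in 1:1 direct co-culture with lung or skin fibroblasts. They were plated onto 384-well plates pre-spotted acoustically with 528 approved and investigational compounds at 5 concentrations, then treated for 72 h. Cells were fixed, immunostained for CK8/18 with Hoechst, and imaged at 10× (4 fields) to count cancer cells. A drug sensitivity score (DSS2) was derived in Breeze from 4-parameter logistic fits, with screen quality checked by Z'.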

OVCAR8 = test: as above; conditions: 72 h
Summary of the method: as §1

[1] = co-cultured fibroblast: BJHTERT
[2] = co-cultured fibroblast: none (monoculture)

Row | SMILES | drug sensitivity score (KURAMOCHI; [1]) [DSS] | drug sensitivity score (KURAMOCHI; co-cultured fibroblast: WI38) [DSS] | drug sensitivity score (KURAMOCHI; [2]) [DSS] | drug sensitivity score (OVCAR8; [1]) [DSS] | drug sensitivity score (OVCAR8; co-cultured fibroblast: WI38) [DSS] | drug sensitivity score (OVCAR8; [2]) [DSS]
1 | CC[C@H](C)C(=O)O[C@H]1C[C@@H](C)C=C2C=C[C@H](C)[C@H](CC[C@@H]3C[C@@H](O)CC(=O)O3)[C@H]21 [Lovastatin] | 0.3 | 3.4 | 5.4 | 1.7 | 8.4 | 2.1
2 | CN1CCN(c2cc(C(=O)Nc3ccc4c(c3)-c3c(c(C(N)=O)nn3-c3ccc(F)cc3)CC4)c(Cl)cn2)CC1 [PHA 408] | 5.8 | 1.9 | 1.6 | 0.5 | 8.6 | 4.8
3 | Cc1cnc(NC(=O)Nc2cc(Br)c(C)cc2OC[C@@H]2CNCCO2)cn1 [Rabusertib] | 0.4 | 0 | 0 | 0.2 | 0 | 0
4 | N#Cc1ccc(COC[C@H]2O[C@@H](n3c(NCc4ccc(Cl)c(Cl)c4)nc4c(N)ncnc43)[C@H](O)[C@@H]2O)cc1 | 4.2 | 3.3 | 3.1 | 1 | 0 | 5.5
5 | Cc1ccc(C(=O)Nc2ccc(Oc3cc4cnn(C)c4cc3-c3cn[nH]c3)c(F)c2)c(=O)n1-c1ccc(F)cc1 [Merestinib] | 0 | 1.5 | 1.5 | 0 | 0 | 0.1
6 | O=C1Cc2cc(C(=O)NC3C[C@H]4CC[C@@H](C3)N4S(=O)(=O)CC3CCN(CCCC(F)(F)F)CC3)c(Cl)cc2N1 (some centres undefined) | 0 | 0.1 | 0 | 0 | 0 | 0
7 | CC(C)Oc1ccc(-c2nn([C@@H](C)c3oc4ccc(F)cc4c(=O)c3-c3cccc(F)c3)c3ncnc(N)c23)cc1F [TGR-1202] | 0 | 0 | 0 | 0 | 0 | 0
8 | C=CC[C@@H]1/C=C(\C)C[C@H](C)C[C@H](OC)[C@H]2O[C@@](O)(C(=O)C(=O)N3CCCC[C@H]3C(=O)O[C@H](/C(C)=C/[C@@H]3CC[C@@H](O)[C@H](OC)C3)[C@H](C)[C@@H](O)CC1=O)[C@H](C)C[C@@H]2OC [Tacrolimus] | 1 | 1 | 18.5 | 0.8 | 0 | 3.1
9 | CCNC(=O)CCC/C=C\C[C@@H]1[C@@H](/C=C/[C@@H](O)CCc2ccccc2)[C@H](O)C[C@@H]1O [Bimatoprost] | 0 | 0 | 0 | 0 | 0 | 0
10 | Nc1nc(F)nc2c1ncn2[C@@H]1O[C@H](CO)[C@@H](O)[C@@H]1O [Fludarabine] | 0.3 | 4.5 | 0 | 8 | 8.5 | 13.4
11 | CCc1c2c(nc3ccc(O)cc13)-c1cc3c(c(=O)n1C2)COC(=O)[C@]3(O)CC [SN-38] | 31.7 | 39.5 | 41 | 40.9 | 40.9 | 45
12 | CC1=C2C[C@H]3[C@@H](CC[C@@H]4C[C@H](NS(C)(=O)=O)CC[C@@]43C)[C@@H]2CC[C@@]2(C1)O[C@@H]1C[C@H](C)CN[C@H]1[C@H]2C [Saridegib] | 3.1 | 3.9 | 4.2 | 0 | 0 | 0
13 | CCC1=C[C@@H]2CN(C1)Cc1c([nH]c3ccccc13)[C@@](C(=O)OC)(c1cc3c(cc1OC)N(C)[C@H]1[C@@](O)(C(=O)OC)[C@H](OC(C)=O)[C@]4(CC)C=CCN5CC[C@]31[C@@H]54)C2 [Vinorelbine] | 29.3 | 25.7 | 25.6 | 38.8 | 33 | 29.3
14 | CN(CC(=O)N(Cc1ccc(C2CCCCC2)cc1)c1ccc(C(=O)O)cc1)S(=O)(=O)c1c(F)c(F)c(F)c(F)c1F [SH-4-54] | 8.5 | 7.8 | 12 | 0 | 6 | 7.3
15 | O=C(Nc1cnn2ccc(N3CCC[C@@H]3c3cc(F)ccc3F)nc12)N1CC[C@H](O)C1 [Larotrectinib] | 0 | 0 | 0 | 0.2 | 1.6 | 0
16 | N#Cc1ccc(C(c2ccc(C#N)cc2)n2cncn2)cc1 [Letrozole] | 0 | 0 | 0 | 0 | 0 | 0
17 | CNC(=O)c1ccc(C)c(-n2c(C)cc(OCc3ccc(F)cc3F)c(Br)c2=O)c1 | 0.6 | 0 | 14.9 | 0.9 | 0 | 0
18 | C[C@H]1C[C@@H](n2c(Nc3ccc(OC(F)(F)F)cc3)nc3cc(CCC(=O)O)ccc32)CC(C)(C)C1 | 0 | 0 | 0 | 0 | 0 | 0
19 | Cc1cc2c(C(=O)NC[C@H](C)c3ccccc3)c(O)c(O)cc2c(O)c1-c1c(C)cc2c(C(=O)NC[C@H](C)c3ccccc3)c(O)c(O)cc2c1O [Sabutoclax] | 3 | 4.3 | 23.7 | 16.2 | 14.2 | 26.7
